From ChEMBL document CHEMBL1201862, “PubChem BioAssay data set” (2004) come the findings set out here.

Some test systems named below: NCI-H23; K562; U-251; LOX IMVI; HCT-116; SF-295; OVCAR-4; EKVX; HL-60; KM12; MCF7; NCI-H226; RXF 393; OVCAR-3; SN12C; HOP-62; NCI-H522; SK-MEL-2; A549; IGROV-1.
What all share (assay): NCI-60 cell line screen, 48 h

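Grown in 96-well plates, cells were treated for 48 hours with each compound at five concentrations. Insufficient inhibition: endpoint recorded as highest concentration tested. GI50 is the concentration that inhibits growth by half.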 Active and inactive are the calls of the source. Cut-off read from the data, not from the text of the source: active = GI50 up to about 1.1 µM and inactive = higher.

As for `CN(C)CCOc1cc2c(c3ccccc13)-c1ccccc1C2=O`, the GI50 with NCI-H23 was 2.36 µM (inactive); with K562, 1.74 µM (inactive); in the experiment on U-251, 2.16 µM (inactive); in the experiment with LOX IMVI, 1.05 µM (active); in the experiment with HCT-116, 1.03 µM (active); with SF-295, 1.71 µM (inactive). For the same compound, the GI50 in the experiment on OVCAR-4 was 1.12 µM (active); in the experiment on EKVX, 4.91 µM (inactive); in the experiment on HL-60, 1.24 µM (inactive); in the experiment on KM12, 1.46 µM (inactive); with MCF7, 1.1 µM (active); with NCI-H226, 1.95 µM (inactive). Further, the GI50 is 2.86 µM (inactive) in the experiment on RXF 393; 1.9 µM (inactive) in the experiment on OVCAR-3; 1.58 µM (inactive) with SN12C; 1.19 µM (inactive) in the experiment with HOP-62; 1.32 µM (inactive) in the experiment on NCI-H522; 1.95 µM (inactive) with SK-MEL-2. The GI50 is 9.62 µM (inactive) in the experiment on A549 and 1.88 µM (inactive) in the experiment on IGROV-1.

As to `c1ccc(OCc2nnc(CCCCCCCCc3nnc(COc4ccccc4)o3)o2)cc1`, the GI50 in the experiment with NCI-H23 was 65.9 µM (inactive); in the experiment with K562, > 100 µM (inactive); in the experiment on U-251 it was 32.2 µM (inactive); in the experiment on LOX IMVI, > 100 µM (inactive); in the experiment with HCT-116 it was 63.8 µM (inactive); with SF-295 it was > 100 µM (inactive). The GI50 with OVCAR-4, with EKVX, in the experiment on HL-60, in the experiment with KM12, in the experiment on MCF7 and in the experiment with NCI-H226 was > 100 µM (inactive) throughout. Besides, the GI50 with RXF 393 is 13.2 µM (inactive); in the experiment with OVCAR-3, 27.8 µM (inactive); in the experiment with SN12C it was > 100 µM (inactive); with HOP-62 it was 97.3 µM (inactive); in the experiment with NCI-H522 it was 50.6 µM (inactive); with SK-MEL-2 it was > 100 µM (inactive). Further, the GI50 in the experiment with A549 and in the experiment on IGROV-1 was > 100 µM (inactive) in each case.

As to `CC(=O)OCC1OC(Nc2ncc(-c3ccc(C)cc3)s2)C(OC(C)=O)C(OC(C)=O)C1OC(C)=O` (stereo not given), the GI50 was 50.7 µM (inactive) with NCI-H23; 34.2 µM (inactive) in the experiment with K562; 56.8 µM (inactive) with U-251; 26.9 µM (inactive) in the experiment on LOX IMVI; 26.6 µM (inactive) in the experiment on HCT-116; 43.2 µM (inactive) in the experiment with SF-295. Further, the GI50 with OVCAR-4 was 27 µM (inactive); in the experiment on EKVX, 54 µM (inactive); with HL-60, 21 µM (inactive); with KM12, 36.1 µM (inactive); with MCF7, 13.3 µM (inactive); with NCI-H226, 25.2 µM (inactive). The GI50 was 47.3 µM (inactive) in the experiment with RXF 393; 31.6 µM (inactive) in the experiment with OVCAR-3; 25.4 µM (inactive) in the experiment on SN12C; 52 µM (inactive) in the experiment on HOP-62; 64.9 µM (inactive) in the experiment with NCI-H522; 34 µM (inactive) in the experiment on SK-MEL-2. In addition, the GI50 in the experiment with A549 was 44.5 µM (inactive); in the experiment with IGROV-1, 66.5 µM (inactive).
